Measured values as given in EP3002287B1, “Thiochromeno[2,3-c]quinolin-12-one derivatives and their use as topoisomerase inhibitors” (National Defense Medical Center, priority 2014, dated 2016).
Read-outs that look alike come from different tables or passages of the source.

Columns and labels:
[1] = system: PC-3; experiment: MTT assay for cell cytotoxicity; type: cell-based, human; conditions: 72 h, at least three independent experiments, read-out: MTT assay (IC50 ± SD) PC-3
Procedure: (§1) All of synthesis compounds were evaluated cell cytotoxicity by using MTT colorimetric assay on PC-3 and DU-145 cell lines. DU-145 and PC-3 are human hormone-refractory (androgen-independent) prostatic cancer cell lines from American Type Culture Collection (HTB-81™, ATCC, Rockville, MD)^125 and Bioresource Collection and Research Center (60122, BCRC, Taiwan)^126, respectively. Two of the "classical" cell lines were cultivated in RPMI-1640 medium supplemented with 5% fetal bovine serum (v/v), 100 U/mL penicillin, and […] streptomycin. Approximately 2 x 10^3 cells were seeded into each well of a 96-well plate and incubated in 5% CO2 at 37 °C for 24 h. To evaluate the in vitro cytotoxicity, all the synthetic compounds were dissolved in DMSO, prepared immediately before the experiments and diluted into the complete medium before being added to each well of a 96-well plate. Each compound was then added to the culture medium for designated various concentrations (0.15, 0.5, 1.5, 5, 15 µM). After 72 h, an amount of 100 µL of MTT (1 mg/mL) was added to each well, and the samples were incubated at 37 °C for 4 h. After removing the MTT solution, 100 µL of DMSO was added to each well and incubated at 37 °C for another 20 mins. The absorbency at 560 nm was measured by using an ELISA reader.
(§2) Results are expressed as mean values of at least three independent experiments. The IC50 values of testing compounds were described in Table 1. Table1. Effects of 10-Chloro-12H-thiochromeno[2,3-c]quinolin -12-one derivatives on cytotoxicity by MTT assay.

[2] = system: DU-145; experiment: MTT assay for cell cytotoxicity; type: cell-based, human; conditions: 72 h, at least three independent experiments, read-out: MTT assay (IC50 ± SD) DU-145
Procedure: as §1, §2

In the case of CC(C)CNc1nc2ccccc2c2c(=O)c3cc(Cl)ccc3sc12 [Compound N5, 10-Chloro-6-isobutylamino-12H-thiochromeno[2,3-c]quinolin-12-one], the IC50 ([1]; Homo sapiens) is reported as over 15 µM and the IC50 ([2]; Homo sapiens) is reported as over 15 µM.
O=c1c2cc(Cl)ccc2sc2c(NC3CCCCC3)nc3ccccc3c12 [Compound N21, 10-Chloro-6-(cyclohexylamino)-12H-thiochromeno[2,3-c]quino lin-12-one] showed an IC50 ([1]; Homo sapiens) of 7.51 ± 0.22 µM and an IC50 ([2]; Homo sapiens) of 8.06 ± 2.08 µM.
With CCC(CO)Nc1nc2ccccc2c2c(=O)c3cc(Cl)ccc3sc12 (centres unmarked) [Compound N12, 10-Chloro-6-((1-hydroxybutan-2yl)amino)-12H-thiochromeno[2,3-c]quinolin-12-one] the IC50 ([1]; Homo sapiens) was 7.05 ± 2.48 µM and the IC50 ([2]; Homo sapiens) was 6.74 ± 2.14 µM.
For CC[C@@]1(O)C(=O)OCc2c1cc1n(c2=O)Cc2cc3ccccc3nc2-1 [Camptothecin, reference compound], the IC50 ([1]; Homo sapiens) was 0.1 ± 0.01 µM and the IC50 ([2]; Homo sapiens) was 0.1 ± 0.01 µM.
For COc1cccc2c1C(=O)c1c(O)c3c(c(O)c1C2=O)C[C@@](O)(C(=O)CO)C[C@@H]3O[C@H]1C[C@H](N)[C@H](O)[C@H](C)O1 [Doxorubicin, reference compound], the IC50 ([2]; Homo sapiens) was 0.12 ± 0.03 µM.
With O=c1c2cc(Cl)ccc2sc2c(NC3Cc4ccccc4C3)nc3ccccc3c12 [Compound N20, 10-Chloro-6-((2,3-dihydro-1H-inden-2-yl)amino)-12H-thiochro meno[2,3-c]quinolin-12-one] the IC50 ([1]; Homo sapiens) was 6.2 ± 2.52 µM and the IC50 ([2]; Homo sapiens) was 4.86 ± 0.99 µM.
In the case of O=c1c2cc(Cl)ccc2sc2c(N3CCSCC3)nc3ccccc3c12 [Compound 14, 10-Chloro-6-thiomorpholino-12H thiochromeno[2,3-c]quinolin-12-one], the IC50 ([1]; Homo sapiens) is reported as over 15 µM and the IC50 ([2]; Homo sapiens) is reported as over 15 µM.
O=c1c2cc(Cl)ccc2sc2c(NCCN3CCOCC3)nc3ccccc3c12 [Compound N16, 10-Chloro-6-((2-morpholinoethyl)amino)-12H-thiochromeno[2,3-c]quinolin-12-one] gave an IC50 ([1]; Homo sapiens) of over 15 µM and an IC50 ([2]; Homo sapiens) of over 15 µM.
Work on CCC(CC)Nc1nc2ccccc2c2c(=O)c3cc(Cl)ccc3sc12 [Compound N6, 10-Chloro-6-(pentan-3-ylamino)-12H-thiochromeno[2,3-c]quin olin-12-one] yielded an IC50 ([1]; Homo sapiens) of over 15 µM and an IC50 ([2]; Homo sapiens) of over 15 µM.
In the case of COc1ccccc1CNc1nc2ccccc2c2c(=O)c3cc(Cl)ccc3sc12 [Compound N28, 10-Chloro-6-((2-methoxybenzyl)amino)-12H-thiochromeno[2,3-c]quinolin-12-one], the IC50 ([1]; Homo sapiens) is reported as 6.01 ± 3.31 µM and the IC50 ([2]; Homo sapiens) is reported as 9.61 ± 4.88 µM.
O=c1c2cc(Cl)ccc2sc2c(NN3CCCCC3)nc3ccccc3c12 [Compound N34, 10-Chloro-6-(piperidin-1-ylamino)-12H-thiochromeno[2,3-c]qu inolin-12-one] gave an IC50 ([1]; Homo sapiens) of 8.22 ± 1.02 µM and an IC50 ([2]; Homo sapiens) of 9.06 ± 1.95 µM.
Molecule O=c1c2cc(Cl)ccc2sc2c(N3CCCCC3)nc3ccccc3c12 [Compound 15, 10-Chloro-6-(piperidin-1-yl)-12H-thiochromeno[2,3-c]quinolin-12-one] has an IC50 ([1]; Homo sapiens) of over 15 µM and an IC50 ([2]; Homo sapiens) of 13.4 ± 2.87 µM.
NC(N)=Nc1nc2ccccc2c2c(=O)c3cc(Cl)ccc3sc12 [Compound N33, 2-(10-Chloro-12-oxo-12H-thiochromeno[2,3-c]quinolin-6-yl)gu anidine] showed an IC50 ([1]; Homo sapiens) of 6.13 ± 6.98 µM and an IC50 ([2]; Homo sapiens) of 8.11 ± 1.37 µM.
Nc1ccc(CCNc2nc3ccccc3c3c(=O)c4cc(Cl)ccc4sc23)cc1 [Compound N32, 6-((4-Aminophenethyl)amino)-10-chloro-12H-thiochromeno[2,3-c]quinolin-12-one] gave an IC50 ([1]; Homo sapiens) of 10.1 ± 0.94 µM and an IC50 ([2]; Homo sapiens) of 13.6 ± 1.39 µM.
In the case of O=C1c2c(O)ccc(O)c2C(=O)c2c(NCCNCCO)ccc(NCCNCCO)c21 [Mitoxantrone, reference compound], the IC50 ([1]; Homo sapiens) is reported as 0.39 ± 0.02 µM and the IC50 ([2]; Homo sapiens) is reported as 0.1 ± 0.01 µM.
O=c1c2cc(Cl)ccc2sc2c(NCc3ccccn3)nc3ccccc3c12 [Compound N26, 10-Chloro-6-((pyridin-2-ylmethyl)amino)-12H-thiochromeno[2,3-c]quinolin-12-one] showed an IC50 ([1]; Homo sapiens) of 14.2 ± 2.22 µM and an IC50 ([2]; Homo sapiens) of 14.8 ± 1.99 µM.
With O=c1c2cc(Cl)ccc2sc2c(NCCc3ccccc3)nc3ccccc3c12 [Compound N30, 10-Chloro-6-(phenethylamino)-12H-thiochromeno[2,3-c]quinol in-12-one] the IC50 ([1]; Homo sapiens) was over 15 µM and the IC50 ([2]; Homo sapiens) was over 15 µM.
O=c1c2cc(Cl)ccc2sc2c(N3CCC(N4CCCCC4)CC3)nc3ccccc3c12 [Compound 18, 6-([1,4'-Bipiperidin]-1'-yl)-10-chloro-12H-thiochromeno[2,3-c]q uinolin-12-one] was tested, and the IC50 ([1]; Homo sapiens) was 14.2 ± 1.41 µM and the IC50 ([2]; Homo sapiens) was 10.2 ± 2.03 µM.
With O=C1CCCCN1c1nc2ccccc2c2c(=O)c3cc(Cl)ccc3sc12 [Compound 21, 10-chloro-6-(2-oxopiperidin-1-yl)-12H-thiochromeno[2,3-c]quin olin-12-one] the IC50 ([1]; Homo sapiens) was 9.55 ± 2.42 µM and the IC50 ([2]; Homo sapiens) was 11.1 ± 4.18 µM.
For O=c1c2cc(Cl)ccc2sc2c(NCc3cccs3)nc3ccccc3c12 [Compound N23, 10-Chloro-6-((thiophen-2ylmethyl)amino)-12H-thiochromeno[2,3-c]quinolin-12-one], the IC50 ([1]; Homo sapiens) was over 15 µM and the IC50 ([2]; Homo sapiens) was 14.7 ± 3.84 µM.
For O=c1c2cc(Cl)ccc2sc2c(N3CCC(O)CC3)nc3ccccc3c12 [Compound 16, 10-Chloro-6-(4-hydroxypiperidin-1-yl)-12H-thiochromeno[2,3-c]quinolin-12-one], the IC50 ([1]; Homo sapiens) was 9.55 ± 2.42 µM and the IC50 ([2]; Homo sapiens) was 11.1 ± 4.18 µM.
Work on O=c1c2cc(Cl)ccc2sc2c(NC3CCN(Cc4ccccc4)CC3)nc3ccccc3c12 [Compound N22, 6-((1-Benzylpiperidin-4-yl)amino)-10-chloro-12H-thiochromen o[2,3-c]quinolin-12-one] yielded an IC50 ([1]; Homo sapiens) of 6.47 ± 0.3 µM and an IC50 ([2]; Homo sapiens) of 8.39 ± 1.84 µM.
Work on COc1ccc(CNc2nc3ccccc3c3c(=O)c4cc(Cl)ccc4sc23)cc1OC [Compound N29, 10-Chloro-6-((3,4-dimethoxybenzyl)amino)-12H-thiochromeno [2,3-c]quinolin-12-one] yielded an IC50 ([1]; Homo sapiens) of 6.2 ± 2.52 µM and an IC50 ([2]; Homo sapiens) of 4.86 ± 0.99 µM.
CCNc1nc2ccccc2c2c(=O)c3cc(Cl)ccc3sc12 [Compound N2, 10-Chloro-6-ethylamino-12H-thiochromeno[2,3-c]quinolin-12-one] showed an IC50 ([1]; Homo sapiens) of 5.18 ± 2.2 µM and an IC50 ([2]; Homo sapiens) of 6.7 ± 1.62 µM.
In the case of O=c1c2cc(Cl)ccc2sc2c(N3CCC(Cc4ccccc4)CC3)nc3ccccc3c12 [Compound 17, 6-(4-Benzylpiperidin-1-yl)-10-chloro-12H-thiochromeno[2,3-c]q uinolin-12-one], the IC50 ([1]; Homo sapiens) is reported as over 15 µM and the IC50 ([2]; Homo sapiens) is reported as over 15 µM.
Work on O=c1c2cc(Cl)ccc2sc2c(NCCCO)nc3ccccc3c12 [Compound N10, 10-Chloro-6-(3-propanolamino)-12H-thiochromeno[2,3-c]quin olin-12-one] yielded an IC50 [1] of 6.31 ± 4.11 µM and an IC50 [2] of 5.94 ± 2.03 µM.
For O=c1c2cc(Cl)ccc2sc2c(NCc3ccc4c(c3)OCO4)nc3ccccc3c12 [Compound N27, 6-((Benzo[d][1,3]dioxol-5-ylmethyl)amino)-10-chloro-12H-thio chromeno[2,3-c]quinolin-12-one], the IC50 ([1]; Homo sapiens) was over 15 µM and the IC50 ([2]; Homo sapiens) was 11.8 ± 5.83 µM.
With O=c1c2cc(Cl)ccc2sc2c(N3CCCC3)nc3ccccc3c12 [Compound 20, 10-Chloro-6-(pyrrolidin-1-yl)-12H-thiochromeno[2,3-c]quinolin-12-one] the IC50 ([1]; Homo sapiens) was over 15 µM and the IC50 ([2]; Homo sapiens) was over 15 µM.
For COc1ccc(CCNc2nc3ccccc3c3c(=O)c4cc(Cl)ccc4sc23)cc1 [Compound N31, 10-Chloro-6-((4-methoxyphenethyl)amino)-12H-thiochromeno[2,3-c]quinolin-12-one], the IC50 ([1]; Homo sapiens) was over 15 µM and the IC50 ([2]; Homo sapiens) was over 15 µM.
Work on O=c1c2cc(Cl)ccc2sc2c(NCC3CCCCC3)nc3ccccc3c12 [Compound N24, 10-Chloro-6-((cyclohexylmethyl)amino)-12H-thiochromeno[2,3-c]quinolin-12-one] yielded an IC50 ([1]; Homo sapiens) of 14.8 ± 3.26 µM and an IC50 ([2]; Homo sapiens) of 13.6 ± 3.88 µM.
COc1cc([C@@H]2c3cc4c(cc3[C@@H](O[C@@H]3O[C@@H]5CO[C@@H](C)O[C@H]5[C@H](O)[C@H]3O)[C@H]3COC(=O)[C@H]23)OCO4)cc(OC)c1O [Etoposide (VP-16), Etoposide, reference compound] was tested, and the IC50 ([1]; Homo sapiens) was 4.33 ± 0.86 µM and the IC50 ([2]; Homo sapiens) was 0.4 ± 0.01 µM.
CCCCNc1nc2ccccc2c2c(=O)c3cc(Cl)ccc3sc12 [Compound N4, 6-(Butylamino)-10-chloro-12H-thiochromeno[2,3-c]quinolin-1 2-one] was tested, and the IC50 ([1]; Homo sapiens) was 10.1 ± 1.32 µM and the IC50 ([2]; Homo sapiens) was 10.3 ± 2.46 µM.
CNc1nc2ccccc2c2c(=O)c3cc(Cl)ccc3sc12 [Compound N1, 10-Chloro-6-methylamino-12H-thiochromeno[2,3-c]quinolin-12-one] gave an IC50 ([1]; Homo sapiens) of 14.5 ± 2.7 µM and an IC50 ([2]; Homo sapiens) of 11.7 ± 5.15 µM.
With CC(C)CC(C)Nc1nc2ccccc2c2c(=O)c3cc(Cl)ccc3sc12 (centres unmarked) [Compound N13, 10-Chloro-6-((4-methylpentan-2yl)amino)-12H-thiochromeno[2,3-c]quinolin-12-one] the IC50 ([1]; Homo sapiens) was 10.4 ± 2.3 µM and the IC50 ([2]; Homo sapiens) was 14.2 ± 1.18 µM.
CCCNc1nc2ccccc2c2c(=O)c3cc(Cl)ccc3sc12 [Compound N3, 10-Chloro-6 propylamino-12H-thiochromeno[2,3-c]quinolin-1 2-one] showed an IC50 ([1]; Homo sapiens) of 7.41 ± 3.43 µM and an IC50 ([2]; Homo sapiens) of 7.64 ± 2.74 µM.
In the case of O=c1c2cc(Cl)ccc2sc2c(NCCO)nc3ccccc3c12 [Compound N9, 10-Chloro-6-(2-ethanolamino)-12H-thiochromeno[2,3-c]quinol in-12-one], the IC50 [1] is reported as 7.48 ± 3.35 µM and the IC50 [2] is reported as 11.6 ± 7.23 µM.
